Data on 6 compounds can be found in patent publication US10385024B2, “Compounds and methods for inhibiting NHE-mediated antiport in the treatment of disorders associated with fluid retention or salt overload and gastrointestinal tract disorders” (Ardelyx, Inc., priority 2012, dated 2019).

Series [1] addresses T1, Rat NHE-3 (Rattus norvegicus, UniProt P26433).
T1 construct: expressed in transfected cells; host or cells: Opossum kidney (OK) cells (ATCC), transfected by electroporation
The series is described as follows: Cell-based assay of NHE-3 activity (rat NHE-3 prompt inhibition). The settings on record: OK cells with rat NHE-3 gene, compound present during pH recovery; for IC50: read-out: Rat NHE3 pIC50 (prompt) (converted). A digest of the protocol: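 Opossum kidney cells electroporated with rat or human NHE-3, loaded with 5 μM BCECF-AM in NH4Cl-HEPES pH 7.4 for 30 min at RT, then acidified 10 min in Na+-free choline HEPES. Na+-dependent pH recovery rates from BCECF fluorescence, averaged over ≥2 replicates, gave pIC50.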

Series [2] has as its target T1, Rat NHE-3. The series is described as follows: Cell-based assay of NHE-3 activity (persistent inhibition, after washout). The note with it: OK cells with rat NHE-3 gene, 60 min incubation, recovery initiated 40 min after compound washout; for IC50: read-out: Rat NHE3 pIC50 (persistent) (converted). A digest of the protocol:
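OK cells transiently expressing rat NHE-3 were exposed to 0-30 μM compound in NaCl-HEPES pH 7.4 for 60 min, then washed free of drug before NH4Cl/BCECF-AM loading and acid-loading in Na+-free choline buffer. Na+-dependent pH recovery rates (mean of ≥2 replicates) gave pIC50.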

The next series is described as follows: Fecal recovery. It counts as in vivo, Sprague Dawley rats. The settings on record: male, Sprague-Dawley, faeces, rat, 1 mg/kg oral gavage. The protocol:
Three male Sprague Dawley rats were administered 1 mg/kg test compound by oral gavage. Feces were collected from study animals from 0-48 or 0-72 hours after dosing, dried by lyophilization, and homogenized. Replicate aliquots of 40-60 mg each were subjected to extraction/protein precipitation with 7:1 acetonitrile:water and centrifuged. Supernatants were diluted 1:10 in 50:50 acetonitrile:water prior to analysis by LC-MS/MS. Compound concentrations, determined by interpolation from a standard calibration curve prepared in blank feces matrix, were converted to the percentage of dosed material recovered by taking into account the total collected fecal matter. The percent recovery for each rat was reported as the mean of the calculations from replicate samples. The overall percent recovery (Fecal Recovery [%]) was reported as the mean percent recovery from three rats. Accurate quality control sample recoveries were confirmed in each run, and extraction efficiency was periodically verified.

Series [3] is described as follows: Pharmacokinetic evaluation in bile. It counts as in vivo, Sprague-Dawley rats. The note with it: bile duct cannulated rats, oral gavage, nominal dose 30 mg/kg, bile collected over 24 h, mean of n=3. The protocol: Bile duct cannulated (BDC) Sprague-Dawley rats were dosed with test compounds by oral gavage and a single aliquot of bile was collected via cannula over the 24 h following dosing. Bile samples were treated with acetonitrile and precipitated proteins were removed by centrifugation. Some compounds required liquid-liquid extraction using MTBE. After centrifugation, samples were diluted as appropriate in mobile phase and analyzed by LC-MS/MS. The concentrations of compounds in bile were determined by interpolation from a standard calibration curve prepared in rat bile from untreated BDC rats. Accurate recovery of quality control samples was confirmed to accept each analytical run. Concentration in bile is reported in nM and represents the mean result from n=3 rats.

Molecules are shown by their SMILES.

T1 sequence (P26433 29-831): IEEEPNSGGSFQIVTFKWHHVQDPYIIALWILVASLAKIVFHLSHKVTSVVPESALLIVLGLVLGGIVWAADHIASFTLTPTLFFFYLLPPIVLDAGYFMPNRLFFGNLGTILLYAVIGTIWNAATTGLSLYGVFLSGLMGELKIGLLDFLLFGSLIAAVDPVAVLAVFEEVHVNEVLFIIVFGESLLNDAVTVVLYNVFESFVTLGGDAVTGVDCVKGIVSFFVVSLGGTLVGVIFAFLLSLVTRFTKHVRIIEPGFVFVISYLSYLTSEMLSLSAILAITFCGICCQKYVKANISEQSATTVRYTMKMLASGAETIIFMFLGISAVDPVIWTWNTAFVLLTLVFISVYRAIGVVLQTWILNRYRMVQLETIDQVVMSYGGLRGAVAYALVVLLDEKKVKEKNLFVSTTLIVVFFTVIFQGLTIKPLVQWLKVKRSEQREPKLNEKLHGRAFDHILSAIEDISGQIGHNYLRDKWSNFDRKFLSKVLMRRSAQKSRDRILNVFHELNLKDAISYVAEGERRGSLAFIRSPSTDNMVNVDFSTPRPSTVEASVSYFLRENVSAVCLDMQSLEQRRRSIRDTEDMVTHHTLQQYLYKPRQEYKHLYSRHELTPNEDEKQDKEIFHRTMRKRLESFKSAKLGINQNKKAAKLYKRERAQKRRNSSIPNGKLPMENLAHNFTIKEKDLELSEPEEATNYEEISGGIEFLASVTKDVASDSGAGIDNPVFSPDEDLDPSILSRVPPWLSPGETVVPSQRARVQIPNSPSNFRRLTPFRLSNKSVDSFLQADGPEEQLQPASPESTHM

`CN1Cc2c(Cl)cc(Cl)cc2[C@H](c2cccc(S(=O)(=O)NCCOCCOCCN(C)C(=O)NCCCN(CCCNC(=O)N(C)CCOCCOCCNS(=O)(=O)c3cccc([C@@H]4CN(C)Cc5c(Cl)cc(Cl)cc54)c3)CCCNC(=O)N(C)CCOCCOCCNS(=O)(=O)c3cccc([C@@H]4CN(C)Cc5c(Cl)cc(Cl)cc54)c3)c2)C1` [Example 55]: at Rat NHE-3 [1], the “Rat NHE3 pIC50 (prompt)” value is recorded as “B (B NHE3 pIC50 5-7)”. Further, the “Rat NHE3 pIC50 (persistent)” value on Rat NHE-3 [2] is given as “C (C NHE3 pIC50 > 7)”. The dose excreted in “Fecal recovery” (collection time 48 h) is 64.6%.
With `CN1Cc2c(Cl)cc(Cl)cc2[C@H](c2cccc(S(=O)(=O)NCCOCCOCCNC(=O)CCC(CCC(=O)NCCOCCOCCNS(=O)(=O)c3cccc([C@@H]4CN(C)Cc5c(Cl)cc(Cl)cc54)c3)(CCC(=O)NCCOCCOCCNS(=O)(=O)c3cccc([C@@H]4CN(C)Cc5c(Cl)cc(Cl)cc54)c3)NC(=O)NCCS(=O)(=O)O)c2)C1` [Example 3], the IC50 at Rat NHE-3 [1] and on Rat NHE-3 [2] was < 100 nM in each case. The “Concentration in Bile” value in series [3] came out at 10 nM. In “Fecal recovery” (collection time 72 h), the dose excreted is 110%.
As to `CN1Cc2c(Cl)cc(Cl)cc2[C@H](c2cccc(S(=O)(=O)NCCOCCOCCNC(=O)NCCCC(N)(CCCNC(=O)NCCOCCOCCNS(=O)(=O)c3cccc([C@@H]4CN(C)Cc5c(Cl)cc(Cl)cc54)c3)CCCNC(=O)NCCOCCOCCNS(=O)(=O)c3cccc([C@@H]4CN(C)Cc5c(Cl)cc(Cl)cc54)c3)c2)C1` [Example 62], the “Rat NHE3 pIC50 (prompt)” value at Rat NHE-3 [1] is “B (B NHE3 pIC50 5-7)”. Further, the “Rat NHE3 pIC50 (persistent)” value at Rat NHE-3 [2] is “C (C NHE3 pIC50 > 7)”. Moreover, in series [3], the “Concentration in Bile” value is 7 nM. In “Fecal recovery” (collection time 48 h), the dose excreted amounted to 81.5%.
In the case of `CN1Cc2c(Cl)cc(Cl)cc2[C@H](c2cccc(S(=O)(=O)NCCOCCOCCNC(=O)NCCCC(CCCNC(=O)NCCOCCOCCNS(=O)(=O)c3cccc([C@@H]4CN(C)Cc5c(Cl)cc(Cl)cc54)c3)(CCCNC(=O)NCCOCCOCCNS(=O)(=O)c3cccc([C@@H]4CN(C)Cc5c(Cl)cc(Cl)cc54)c3)NC(=O)NC[C@H](O)[C@@H](O)[C@H](O)[C@H](O)CO)c2)C1` [Example 65], the “Rat NHE3 pIC50 (prompt)” value at Rat NHE-3 [1] is reported as “B (B NHE3 pIC50 5-7)”. Besides, the “Rat NHE3 pIC50 (persistent)” value on Rat NHE-3 [2] was “C (C NHE3 pIC50 > 7)”. Moreover, the dose excreted in “Fecal recovery” (collection time 48 h) turned out to be 112%.
With `CN1Cc2c(Cl)cc(Cl)cc2[C@H](c2cccc(S(=O)(=O)NCCOCCOCCNC(=O)CCC(CCC(=O)NCCOCCOCCNS(=O)(=O)c3cccc([C@@H]4CN(C)Cc5c(Cl)cc(Cl)cc54)c3)(CCC(=O)NCCOCCOCCNS(=O)(=O)c3cccc([C@@H]4CN(C)Cc5c(Cl)cc(Cl)cc54)c3)NC(=O)NC(CO)(CO)CO)c2)C1` [Example 11, N^1,N^7-bis(2-(2-(2-(3-((S)-6,8-dichloro-2-methyl-1,2,3,4-tetrahydroisoquinolin-4-yl)phenylsulfonamido)ethoxy)ethoxy)ethyl)-4-(3-(2-(2-(2-(3-((S)-6,8-dichloro-2-methyl-1,2,3,4-tetrahydroisoquinolin-4-yl)phenylsulfonamido)ethoxy)ethoxy)ethylamino)-3-oxopropyl)-4-(3-(1,3-dihydroxy-2-(hydroxymethyl)propan-2-yl)ureido)heptanediamide], the values for the IC50 at Rat NHE-3 [1] and on Rat NHE-3 [2] were > 10000 nM and < 100 nM, respectively. Further, the dose excreted in the series “Fecal recovery” (collection time 48 h) worked out at 64.1%.
As to `CN1Cc2c(Cl)cc(Cl)cc2[C@H](c2cccc(S(=O)(=O)NCCOCCOCCNC(=O)CCC(CCC(=O)NCCOCCOCCNS(=O)(=O)c3cccc([C@@H]4CN(C)Cc5c(Cl)cc(Cl)cc54)c3)(CCC(=O)NCCOCCOCCNS(=O)(=O)c3cccc([C@@H]4CN(C)Cc5c(Cl)cc(Cl)cc54)c3)NC(=O)NCCN3CCOCC3)c2)C1` [Example 17, N^1,N^7-bis(2-(2-(2-(3-((S)-6,8-dichloro-2-methyl-1,2,3,4-tetrahydroisoquinolin-4-yl)phenylsulfonamido)ethoxy)ethoxy)ethyl)-4-(3-(2-(2-(2-(3-((S)-6,8-dichloro-2-methyl-1,2,3,4-tetrahydroisoquinolin-4-yl)phenylsulfonamido)ethoxy)ethoxy)ethylamino)-3-oxopropyl)-4-(3-(2-morpholinoethyl)ureido)heptanediamide], the IC50 at Rat NHE-3 [1] and on Rat NHE-3 [2] was < 100 nM in each case. The compound further came in with a dose excreted in “Fecal recovery” (collection time 72 h) of 96.9%.
